One data set concerns L929. Briefly: Anti-necroptic activity in mouse L929 cells assessed as TNFalpha/Z-VAD (TSZ) induced necroptosis by measuring cell viability preincubated for 1 hr followed by TSZ addition and measured after 24 hrs by celltiter-glo luminescent cell viability assay. Type of data set: functional, cell-based. A general note: ATP-based viability assays read luminescence as a measure of living cells.

The nature of data set [1]: Metabolic stability in human liver microsomes assessed as half life by LC-MS/MS analysis. It is filed as ADME. A general note: Liver microsomes are vesicles of endoplasmic reticulum, rich in cytochrome P450 enzymes.
In a further data set the target is CYP3A4 (Homo sapiens, UniProt P08684). Briefly: Inhibition of CYP3A4 (unknown origin) using midazolam as cocktail probe substrate at 10 uM preincubated for 20 mins followed by substrate addition and measured after 20 mins by LC-MS/MS analysis relative to control. It is filed as ADME. Particulars: time 40 min.
A short description of data set [2]: Metabolic stability in rat liver microsomes assessed as half life by LC-MS/MS analysis. Type of data set: ADME, Microsome.
Data set [3] in a line: Metabolic stability in rat liver microsomes assessed as intrinsic clearance by LC-MS/MS analysis. It is filed as ADME, Microsome. Particulars: read-out: CLH.
Data set [4] can be described thus: Tmax in Sprague-Dawley rat at 10 mg/kg, po measured upto 24 hrs by LC-MS/MS analysis. To be noted: in vivo. It is filed as ADME, organism-based.
Data set [5] is described as follows: Oral bioavailability in Sprague-Dawley rat at 10 mg/kg measured upto 24 hrs by LC-MS/MS analysis. Particulars: in vivo. It is filed as ADME, organism-based.
Data set [6] concerns the target Receptor-interacting serine/threonine-protein kinase 3 (Homo sapiens) (UniProt Q9Y572). Briefly: Binding affinity to wild-type human partial length RIPK3 (M1 to Q307 residues) expressed in bacterial expression system at 10000 nM measured after 1 hr by Kinomescan method.
Data set [7] deals with Mus musculus. Briefly: Anti-necroptosis activity against TNFalpha-induced C57BL/6J mouse systemic inflammatory response syndrome model assessed as reduction in lethal shock at 3 mg/kg, ip pretreated for 15 mins and measured upto 72 hrs after TNFalpha stimulation. It is filed as functional, organism-based.
For data set [8], the system named is Mus musculus. The experiment in a line: Antiinflammatory activity in TNFalpha-induced C57BL/6J mouse systemic inflammatory response syndrome model assessed as reduction in IL-6 production in serum at 3 mg/kg, ip pretreated for 15 mins and measured upto 72 hrs after TNFalpha stimulation. It is filed as functional, organism-based.
Data set [9] is described as follows: Toxicity in C57BL/6J mouse assessed as effect on body weight at 5 to 25 mg/kg, po administered daily for 7 days. Type of data set: organism-based. Particulars: in vivo, 168 h, dose 5-25 mg/kg, time 7 day.
Data set [10] can be described thus: Toxicity in C57BL/6J mouse assessed as effect on liver morphological changes at 5 to 25 mg/kg, po administered daily for 7 days by H and E staining method. It is filed as organism-based. To be noted: in vivo, 168 h, dose 5-25 mg/kg, time 7 day.
Data set [11] can be described thus: Toxicity in C57BL/6J mouse assessed as effect on spleen morphological changes at 5 to 25 mg/kg, po administered daily for 7 days by H and E staining method. Type of data set: organism-based. Particulars: in vivo, 168 h, dose 5-25 mg/kg, time 7 day.
The nature of data set [12]: Toxicity in C57BL/6J mouse assessed as effect on lung morphological changes at 5 to 25 mg/kg, po administered daily for 7 days by H and E staining method. To be noted: in vivo, 168 h, dose 5-25 mg/kg, time 7 day. Type of data set: organism-based.
Data set [13] deals with Mus musculus. Briefly: Anti-necroptosis activity against TNFalpha-induced C57BL/6J mouse systemic inflammatory response syndrome model assessed as reduction in hypothermia at 3 mg/kg, ip pretreated for 15 mins and measured upto 72 hrs after TNFalpha stimulation. It is filed as functional, organism-based.
The nature of data set [14]: Toxicity in C57BL/6J mouse assessed as effect on behavioral change at 5 to 25 mg/kg, po administered daily for 7 days. To be noted: in vivo, 168 h, dose 5-25 mg/kg, time 7 day. Type of data set: organism-based.
Data set [15] in a line: Toxicity in C57BL/6J mouse assessed as effect on food intake at 5 to 25 mg/kg, po administered daily for 7 days. It is filed as organism-based. To be noted: in vivo, 168 h, dose 5-25 mg/kg, time 7 day.
A short description of data set [16]: Protein binding in rat plasma assessed as unbound fraction by LC-MS/MS based equilibrium dialysis method. It is filed as ADME, cell-free. A general note: Equilibrium dialysis compares concentrations on both sides of a semipermeable membrane.

Calls of active or inactive are those of the source.

Sequence of CYP3A4 (P08684 whole entry): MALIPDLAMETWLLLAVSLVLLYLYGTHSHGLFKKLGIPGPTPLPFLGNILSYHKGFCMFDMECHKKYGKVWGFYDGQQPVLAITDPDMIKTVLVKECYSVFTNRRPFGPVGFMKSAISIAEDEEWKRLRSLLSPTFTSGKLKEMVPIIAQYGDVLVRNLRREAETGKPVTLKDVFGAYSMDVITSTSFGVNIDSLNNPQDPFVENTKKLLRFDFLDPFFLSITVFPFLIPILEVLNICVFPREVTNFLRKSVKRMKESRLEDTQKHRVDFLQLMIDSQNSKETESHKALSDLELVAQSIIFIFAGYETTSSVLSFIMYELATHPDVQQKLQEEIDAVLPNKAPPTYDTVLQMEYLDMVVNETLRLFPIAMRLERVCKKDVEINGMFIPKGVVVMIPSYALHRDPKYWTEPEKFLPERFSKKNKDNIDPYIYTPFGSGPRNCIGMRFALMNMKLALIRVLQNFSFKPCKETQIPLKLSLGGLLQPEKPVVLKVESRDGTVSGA
Sequence of Receptor-interacting serine/threonine-protein kinase 3 (Homo sapiens) (Q9Y572 whole entry, looked up, the tested form may be a part): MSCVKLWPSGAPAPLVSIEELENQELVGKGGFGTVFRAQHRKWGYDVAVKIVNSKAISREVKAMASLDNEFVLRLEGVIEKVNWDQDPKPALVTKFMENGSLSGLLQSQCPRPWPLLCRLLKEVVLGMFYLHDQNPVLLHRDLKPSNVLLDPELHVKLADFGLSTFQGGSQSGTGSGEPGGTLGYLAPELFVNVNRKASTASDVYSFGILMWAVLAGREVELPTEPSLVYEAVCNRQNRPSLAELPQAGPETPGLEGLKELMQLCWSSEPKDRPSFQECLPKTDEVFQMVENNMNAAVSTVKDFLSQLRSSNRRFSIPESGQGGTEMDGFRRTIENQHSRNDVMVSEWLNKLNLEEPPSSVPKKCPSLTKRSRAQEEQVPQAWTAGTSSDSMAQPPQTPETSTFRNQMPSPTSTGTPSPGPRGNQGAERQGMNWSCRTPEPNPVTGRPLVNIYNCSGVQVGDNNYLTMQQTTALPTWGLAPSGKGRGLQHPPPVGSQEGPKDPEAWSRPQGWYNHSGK

Broadly, the EC50 is the concentration needed to bring the measured effect to its halfway point. By half-life is commonly meant the time needed for the level to fall by half in the phase considered. A word on the inhibition: it is the change of the read-out against control, counted positive when it falls. Lower therefore signals little suppression. Broadly, the Tmax is the time from dosing to the highest level. The fraction unbound is the share of the substance not bound to proteins or other matrix. In the case of `Cc1ncc(-c2ccc3nc(NC(=O)C4CC4)sc3c2)cc1NC(=O)OC1CCOCC1`, in the data set with L929, the concentration for a half-maximal effect (EC50) came out at 30 nM. The figures for the half-life in [1] and in data set [2] were 1.48 h and 0.65 h, respectively. Further, the inhibition at 20 min, 10 µM at CYP3A4 turned out to be 17%. Further, the CLint scaled in [3] came out at 159 mL/min/kg. Also, the Tmax in [4] was 1.2 h. Also, the F in data set [5] is recorded as 63%. Moreover, the outcome in [6] was inactive. In addition, the outcome in the data set with Mus musculus [7], in the data set with Mus musculus [8] and with Mus musculus [13] was Active. The Activity entry in data set [9], in data set [10], in data set [11], in [12], in data set [14] and in data set [15] was “Non-Toxic” in each case. Also, the fraction unbound in [16] was found to be 0.018.
